Measured values published in PMC8434109, “Synthesis and Biological Activity of a Cytostatic Inhibitor of MLLr Leukemia Targeting the DOT1L Protein” (Molecules, 2021).

How the values were obtained:
recombinant hDOT1L = recombinant hDOT1L (Homo sapiens, UniProt Q8TEK3); assay: AlphaLISA DOT1L enzymatic inhibition assay on purified nucleosomes
Microsomal stability = type: in vitro ADME; conditions: mouse, liver microsomes
H3K79me2 in MV4-11 cells = assay: Western blot of H3K79me2 normalized to total H3; type: cell-based, human; conditions: MV4-11, 4 days, increasing concentrations
Experimental: Next, we evaluated the effect on the demethylation of H3K79 in MLL-AF9 MOLM13 cells (Figure 7B).
The non-adherent cell lines MV4-11, MOLM-13, and KOPN8 exponentially growing cells were plated in 12-well plates (1 plate for each experiment) at a rate of 500,000 cells per well at a final volume of 2 mL. The cells were incubated in the presence of increasing inhibitor concentrations (0.1, 0.32, 1, 3.2, 10 µM). The cells (1 to 2 million) were harvested at the time chosen according to the line in order to extract the histones and the RNAs.
For the isolation of histones from cells, 1 to 2 million cells were collected, after exposure to the chosen treatment, by centrifugation at 200× g and lysed by 5 min of incubation on ice in 250 μL of the nuclear extraction buffer (10 mM Tris-HCl, 10 mM MgCl2, 25 mM KCl, 1% Triton X-100, 8.6% sucrose, Roche Protease inhibitor tablet 1836145). The nuclei were collected by centrifugation at 600× g for 5 min at 4 °C. The supernatant was removed and the histones were extracted for 1 h with 0.4 N cold sulfuric acid. The extracts were clarified by centrifugation at 10,000× g for 10 min at 4 °C and transferred to a microcentrifuge tube containing a 10× volume of ice-cold acetone. The histones were precipitated at ‒20 °C overnight and recovered by centrifugation at 1500× g for 10 min in the form of a pellet and then resuspended in 80 μL of water. Histones were quantified by absorbance measured by a nanodrop at 276 nm.
After extraction, the histones (500ng) were separated on 4–20% Tris-Glycine gels (Invitrogen) and transferred onto a nitrocellulose membrane ([…]) using the iBlot® Gel Transfer Stacks Nitrocellulose kit Mini (Invitrogen). After blocking nonspecific sites for 1 h at room temperature in a solution of 1X TBS at 5% milk, the membrane was incubated with rabbit anti-H3K79me2 (ab3594, 1/1000) or anti-H3 (ab1791)1/1000) overnight at 4 °C or 1 h at RT. The membrane was then washed three times for 5 min in a 1X TBS solution containing 0.05% Tween20 and was then incubated with an HRP anti-rabbit secondary antibody (NA934V, 1/10,000) for 1 h at RT. […]

KOPN8 cells (MLL-ENL) = assay: Cell proliferation, trypan blue counting; type: cell-based; conditions: Homo sapiens, KOPN-8, 360 h, 15-day treatment, read-out: EC50 of the proliferation inhibition
Experimental: (§1) For assessment of cell proliferation and viability in human cell lines, exponentially growing cells were placed, in triplicate, in 96-well plates at a density of 35,000 cells/well at a final volume of 100 µL. […] The viable cell number was determined every 3–4 days for up to 15 days to 21 days using trypan blue counting using Cellometer Disposable Counting Chambers for the Cellometer Mini Automated Cell Counter.

NOMO-1 cells (MLL-AF9) = assay: Cell proliferation, trypan blue counting; type: cell-based; conditions: Homo sapiens, 360 h; NOMO-1 (AF9), 15-day treatment; read-out: EC50 of the proliferation inhibition
Experimental: as §1

MV4-11 cells [1] = assay: Flow cytometry cell cycle analysis (propidium iodide); type: cell-based, human; conditions: MV4-11, 1 µM
Experimental: (§2) A decrease in the S phase of the cell cycle was also observed from 24% (day 8) to 20% (day 10), 13% (day 12).
(§3) In a 12-well plate, 2 mL exponentially growing MV4-11 cells were plated with a density of 2 × 10^5 cells/mL. […] Culture media and drugs were replaced every 2–3 days and cells were split back to a density of 2 × 10^5 cells/mL at the same time. Cells were harvested on days 8, 10, 12 and split to allow the analysis of cell cycle and Annexin V staining simultaneously. The apoptosis ratio was detected by an Annexin V-APC/7-AAD double staining assay (SONY 3804610) and cells were prepared according to the manufacturer’s recommendations. Cells for the cell cycle analysis were collected by centrifugation at 500× g for 5 min at 4 °C. The pellets were washed once with cold PBS and then fixed with 70% ethanol on ice for 30 min. Afterwards, the cells were washed once with cold PBS and stained with propidium iodide (Invitrogen P3566) for 30 min at 37 °C. Samples were measured using an Attune NxT acoustic focusing cytometer (Life Technologies), data were analyzed by FlowJo.

MOLM-13 cells (MLL-AF9) = assay: Cell proliferation, trypan blue counting; type: cell-based; conditions: Homo sapiens, 360 h; MOLM-13 (AF9), 15-day treatment; read-out: EC50 of the proliferation inhibition
MV4-11 cells [2] = assay: Flow cytometry apoptosis analysis (Annexin V-APC/7-AAD); type: cell-based, human; conditions: MV4-11
Experimental: as §2, §3

MV4-11 cells (MLL-AF4) = assay: Cell proliferation and viability, trypan blue counting; type: cell-based, human

recombinant hDOT1L, sequence (Q8TEK3 1-416): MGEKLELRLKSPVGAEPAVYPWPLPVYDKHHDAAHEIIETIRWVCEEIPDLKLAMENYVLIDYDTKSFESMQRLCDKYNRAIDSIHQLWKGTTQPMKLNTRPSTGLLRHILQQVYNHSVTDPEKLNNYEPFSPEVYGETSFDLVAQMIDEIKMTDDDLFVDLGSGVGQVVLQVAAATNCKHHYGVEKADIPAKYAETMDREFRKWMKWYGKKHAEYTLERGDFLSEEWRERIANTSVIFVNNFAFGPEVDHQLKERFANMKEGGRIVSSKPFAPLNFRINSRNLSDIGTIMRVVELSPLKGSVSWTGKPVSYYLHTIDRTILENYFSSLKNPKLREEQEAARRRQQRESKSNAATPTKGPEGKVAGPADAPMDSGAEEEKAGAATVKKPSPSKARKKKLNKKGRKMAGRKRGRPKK

IC50 (recombinant hDOT1L) [nM]	SMILES	half-life (Microsomal stability) [min]	H3K79me2 methylation compared to DMSO treated cells (H3K79me2 in MV4-11 cells)	EC50 (KOPN8 cells (MLL-ENL)) [nM]	EC50 (NOMO-1 cells (MLL-AF9)) [nM]	effect on the cell cycle (MV4-11 cells [1])	EC50 (MOLM-13 cells (MLL-AF9)) [nM]	effect on apoptosis (MV4-11 cells [2])	EC50 (MV4-11 cells (MLL-AF4); Homo sapiens, 360 h, MV4-11 (AF4), 15-day treatment, read-out: EC50 of the proliferation inhibition) [nM]	effect on cell viability / proliferation (MV4-11 cells (MLL-AF4); MV4-11, after 8 days of treatment)
316	CC(C)[C@@H](CCCNC(=O)Nc1ccc(C(C)(C)C)cc1)N[C@H]1C[C@@H](n2cnc3c(N)ncnc32)[C@H](O)[C@@H]1O [Dia1, 1-((R)-4-(((1S,2R,3S,4R)-4-(6-amino-9H-purin-9-yl)-2,3-dihydroxycyclopentyl)amino)-5-methylhexyl)-3-(4-(tert-butyl)phenyl)urea]	–	–	–	–	–	–	–	–	–
–	CC(C)N(CCCNC(=O)Nc1ccc(C(C)(C)C)cc1)C[C@H]1O[C@@H](n2ccc3c(N)ncnc32)[C@H](O)[C@@H]1O [EPZ-4777, reference compound]	5.3	–	–	–	–	–	–	–	–
–	CC(C)N(C[C@H]1O[C@@H](n2cnc3c(N)ncnc32)[C@H](O)[C@@H]1O)[C@H]1C[C@@H](CCc2nc3cc(C(C)(C)C)ccc3[nH]2)C1 [EPZ-5676, reference compound]	5.7	efficient decrease in methylation	86 ± 4	562 ± 15	increase in cells in subG1	92 ± 2	increase in apoptosis	21 ± 1	cell viability decreased by half
